The source of these data is patent US20240307220A1, “Combination Therapy to Treat Temperature Sensitive Mutant Tumors” (H. LEE MOFFITT CANCER CENTER AND RESEARCH INSTITUTE INC., priority 2021, published 2024).

The subject of series [1] is H1299 cells expressing A138V. Description: ChIP of p53 DNA binding in H1299 expressing A138V shifted to 32° C. with CHX or 17-AAG. The class given is cell-based, human. Further details: rescue of p53 DNA binding at 32° C. (ChIP): dose or concentration left out as unconfirmed. The procedure:
FIGS. 4A to 4E show molecular chaperones mediate refolding of stockpiled ts p53 at permissive temperature. […] P53 binding to p21 promoter was determined by ChIP. […] P53 DNA binding was determined by ChIP. FIG. 4C is a diagram of cell-free luciferase fragment complementation assay that detects the DNA binding of p53-Cluc fusion protein. ZF-Nluc and p53-Cluc binding to DNA containing ZF and p53 sites juxtapose Nluc and Cluc domains to restore luciferase activity. […] The heat-treated p53-Cluc proteins were mixed with ZF-Nluc, DNA, ATP, E. coli extract containing 5 chaperones and incubated for 3 hrs at 23° C. P53 DNA binding was detected by measuring luciferase activity. The results are average of 3 experiments (mean±SD). **p<0.01.
Chromatin immunoprecipitation (ChIP). ChIP assay was performed using standard procedure. Crosslinked p53-DNA complexes were immunoprecipitated with DO-1 antibody. Samples were subjected to SYBR Green real-time PCR analysis using forward and reverse primers for the p53 binding sites in the p21 promoter ([…] (SEQ ID NO:7) and […] (SEQ ID NO:8)), and PUMA promoter ([…] (SEQ ID NO:9) and […] (SEQ ID NO:10)).

Series [2] is described as follows: Pharmacological induction of hypothermia by CHA in nude mice. The class given is in vivo. The procedure: FIGS. 6A to 6D show hypothermia inhibits the growth of tumors expressing ts p53. […] One group of mice was treated with 32° C. hypothermia in 24 hr×6 format. Control animals (37° C.) were not treated. […] Tumor size (mean±SD) was plotted over time.
Animal experiment. Animal experiments were reviewed and approved by the University of South Florida IACUC. Athymic female nude mice (6-week old, Athymic Nude-Foxn1nu, Envigo) were injected subcutaneously with 0.1 ml 1:1 slurry of Matrigel (VWR 47743-715) and 1×10^7 cells in PBS at each site. The inoculated mice were housed in a cabinet set to 28° C. (ARIA BIO-C36 ventilated cabinet, TECNIPLAST) to ensure that tumors develop at ˜37° C. Each mouse received injections at 2 sites, tumors formed at >80% of sites injected with GA10 cells. N^6-cyclohexyladenosine (CHA, Sigma C9901) was dissolved at 20 mg/ml in 25% (2-Hydroxypropyl)-β-cyclodextrin (w/v, Sigma H107) and heated at 65° C. for 10 min to ensure dissolution. Camptothecin (CPT, Santa Cruz Biotechnology sc-200871B) was freshly dissolved in 1 N NaOH, diluted to ˜0.5 mg/ml with saline, and adjusted to pH10 using HCl. To induce hypothermia, 0.2 ml saline+10% glucose containing CHA and CPT was administered by intra peritoneal injection to provide a CHA dosage of 10 mg/kg body weight and CPT (when indicated) dosage of 1.5 mg/kg body weight. The mice were kept in the 28° C. cabinet and monitored using infrared thermal imaging camera (FLIR ONE Pro, FLIR® Systems, Inc.) to verify that body temperature was maintained at ˜32° C. A second injection of CHA (10 mg/kg) in 0.4 ml saline+10% glucose was given after 10 hours to maintain hypothermia for ˜24 hours. A third injection of CHA (10 mg/kg) in 0.4 ml saline+10% glucose was given after 10 hours to maintain hypothermia for ˜32 hours. After regaining normal body temperature, the mice were kept for 2-4 days in the 28° C. cabinet to allow weight recovery (˜10% weight loss occurred during hypothermia due to loss of mobility and food intake). The treatment was repeated 4-5 times (24 hr×6 or 32 hr×5 format). In each subsequent round CHA dosage was increased by 25% to compensate for the gradual loss of sensitivity.
Pharmacological induction of hypothermia. To test the effect of hypothermia on tumors with ts p53, the adenosine A1 receptor (A1AR) agonist CHA ([…]) was used to lower mouse body temperature to 32° C. for 24-48 hours. […] Intraperitoneal injection of CHA caused body temperature to decrease to ˜3° C. above the environment in ˜10 minutes, consistent with the induction of hibernation-like response in rats and mice by A1AR agonists (Tupone D, et al. J Neurosci 2013 33:14512-25; Futatsuki T, et al. Sci Rep 2018 8:2717). […] This was achieved by keeping the CHA-treated mice in a 28° C. environment (FIG. 6A). […]

Another series concerns UC3 bladder cancer cells. Briefly: UC3 colony formation after 2 hrs drug treatment, washout and 32° C. or 37° C. incubation. To be noted: 2 hrs drug at 37° C., washout, 32° C. vs 37° C. 24 hrs, then 7 days at 37° C. The class given is cell-based. How it is done:
FIGS. 17A and 17B show hypothermia treatment given after chemotherapy enhances drug response in bladder cancer. […] The washed cells were incubated at 32° C. or 37° C. for 24 hrs, followed by 7 days at 37° C. and crystal violet staining for colony formation.
Standard bladder intravesical chemotherapy involves 1-2 hr irrigation with drugs at 37° C. or 42° C. The effect of treating cells with 32° C. hypothermia after chemotherapy was tested to avoid interference with drug uptake. TS mutant p53 activation peaks 6-8 hrs after shift to 32° C., which should cooperate with chemotherapy-induced DNA damage to induce cell death. […] Saline irrigation of up to 24 hrs is routinely performed after transurethral resection of bladder tumor (TURBT) procedure to prevent clotting. Therefore, irrigation with cooled saline after intravesical chemotherapy is expected to be well-tolerated and safe.

Where [3] appears, read: nude mice, intraperitoneal injection.

Turning to `C=CCNC1=C2C[C@@H](C)C[C@H](OC)[C@H](O)[C@@H](C)/C=C(\C)[C@H](OC(N)=O)[C@@H](OC)/C=C\C=C(/C)C(=O)NC(=CC1=O)C2=O` [17-AAG], the “p53 activation at 32° C. (ChIP DNA binding)” value in series [1] (50 μM 17-AAG) was “blocked p53 activation”.
As to `OC[C@H]1O[C@@H](n2cnc3c(NC4CCCCC4)ncnc32)[C@H](O)[C@@H]1O` [CHA, N^6-cyclohexyladenosine], the “weight loss during hypothermia” value in series [2] (CHA 10 mg/kg injections, due to loss of mobility and food intake) is about 10%. Moreover, in series [2] (multiple injections of CHA, 28° C. environment), the “duration body temperature maintained at 32° C.” value lay within 24 to 32 h. Besides, in series [2] (setting [3]), the “body temperature after CHA injection” value is about 3 °C above the environment and the “time for body temperature decrease” value is about 10 min.
`COc1cccc2c1C(=O)c1c(O)c3c(c(O)c1C2=O)C[C@@](O)(C(=O)CO)C[C@@H]3O[C@H]1C[C@H](N)[C@H](O)[C@H](C)O1` [Doxorubicin]: the “effect of 32° C. for 24 hrs after drug on growth inhibition (colony formation)” value in the series on UC3 bladder cancer cells is “modestly increased”.
With `Nc1ccn([C@@H]2O[C@H](CO)[C@@H](O)C2(F)F)c(=O)n1` [Gemcitabine], the “effect of 32° C. for 24 hrs after drug on growth inhibition (colony formation)” value with UC3 bladder cancer cells was “modestly increased”.
For `C[C@@H]1C[C@@H]([C@H](O)CC2CC(=O)NC(=O)C2)C(=O)[C@@H](C)C1` [cycloheximide], the “rescue of p53 DNA binding at 32° C. (ChIP)” value in series [1] (cycloheximide (CHX)) is “did not prevent the rescue of DNA binding”.
